One assay concerns the target T1, CDK4/CyclinD1 (Homo sapiens, UniProt P11802).
T1 construct: purchased ProQinase 0142-0143-1
Kind of assay: CDK4/CyclinD1 kinase inhibitory activity (Caliper mobility shift). Type of assay: biochemical. The conditions noted are these: enzyme 20 nM, ATP 672 uM, 28° C. 30 min; read-out: CDK4/Cyclin D1 IC50. The protocol: CDK4/CyclinD1 kinase inhibitory activity (IC50): 5 μl of various dilutions of test compound in 1× kinase buffer (20 mM HEPES, pH 7.5, 10 mM MgCl2, 2 mM DTT and 0.01% Triton X-100) was mixed with 10 μL of either CDK4/Cyclin D1 (ProQinase, 0142-0143-1 #, final concentration 20 nM in 1× Kinase buffer) or in 384 plates and incubated at room temperature for 10 min. To initiate each reaction, 10 μL of peptide solution containing fluorescently-labeled-peptide 8(5-FAM-IPTSPITTTYFFFKKK-COOH, GL, 112396 #, final concentration 3000 nM) and ATP (final concentration 672 uM for CDK4/CyclinD1) in 1×Kinase buffer was added to each of the wells containing test compound and CDK4/CyclinD1 mixture. The reaction is then allowed to proceed at 28° C. for 30 min and terminated by the addition of 25 μL stop buffer (100 mM HEPES pH 7.5, 50 mM EDTA, 0.2% Coating Reagent #3 (Perkin Elmer, 760050 #) and 0.015% Brij-35).
(§1) Following the kinase reaction, Caliper EZ reader II (Downstream voltages: −500V, Upstream voltages: −2250V, Base pressure −0.5 PSI, Screen pressure −1.2 PSI) was used to separate the phosphorylated (product) and the unphosphorylated (substrate) fluorescently-labeled peptide 8 based on their different mobility. Both substrate and product were measured and the ratio of these values were used to generate % conversion by Caliper EZ reader II. These conversion values were then transformed into % inhibition of kinase activity using the formula: % Inhibition=[(MA−X)/(MA−MI)]×100% where MA=conversion value of DMSO only controls, MI=conversion value of no enzyme controls and X=conversion value at any given compound dose. IC50 values were then calculated by plotting dose-response curves and then using the XLfit application in Excel software.

Another assay deals with T2, CDK6/CyclinD3 (Homo sapiens, UniProt Q00534).
T2 construct: purchased Carna 04-107
T2 sequence (Q00534 whole entry): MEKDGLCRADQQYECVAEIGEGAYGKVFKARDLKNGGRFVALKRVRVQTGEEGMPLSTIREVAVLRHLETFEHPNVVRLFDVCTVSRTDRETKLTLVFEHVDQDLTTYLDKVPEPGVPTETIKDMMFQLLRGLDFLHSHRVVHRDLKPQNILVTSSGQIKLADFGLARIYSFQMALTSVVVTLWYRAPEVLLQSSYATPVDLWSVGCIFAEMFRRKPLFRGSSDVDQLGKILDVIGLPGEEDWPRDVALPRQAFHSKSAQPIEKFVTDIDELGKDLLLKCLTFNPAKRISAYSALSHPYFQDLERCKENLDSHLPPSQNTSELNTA
T2 sequence (P30281 whole entry partner): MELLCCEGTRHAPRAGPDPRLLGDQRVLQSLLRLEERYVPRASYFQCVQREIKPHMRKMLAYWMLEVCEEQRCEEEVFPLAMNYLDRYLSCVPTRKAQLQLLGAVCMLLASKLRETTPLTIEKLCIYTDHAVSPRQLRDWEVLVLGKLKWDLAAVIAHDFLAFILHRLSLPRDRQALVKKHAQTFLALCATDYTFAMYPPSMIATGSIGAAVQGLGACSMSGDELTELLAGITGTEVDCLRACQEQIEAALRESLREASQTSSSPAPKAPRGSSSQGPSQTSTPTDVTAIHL
Briefly: CDK6/CyclinD3 kinase inhibitory activity (Caliper mobility shift). The conditions noted are these: enzyme 15 nM, ATP 800 μM, 28° C. 30 min; read-out: CDK6/Cyclin D3 IC50. Type of assay: biochemical. The method, then: CDK6/CyclinD3 kinase inhibitory activity (IC50): 5 μl of various dilutions of test compound in 1× kinase buffer (50 mM HEPES pH 7.5, 10 mM MgCl2, 2 mM DTT and 0.01% Brij-35) was mixed with 10 μL of CDK6/CyclinD3 (Carna, 04-107 #, final concentration 15 nM in 1× Kinase buffer) in 384 plates and incubated at room temperature for 10 min. To initiate each reaction, 10 μL of peptide solution containing fluorescently-labeled -peptide 8(5-FAM-IPTSPITTTYFFFKKK-COOH, GL, 112396 #, final concentration 3000 nM) and ATP (final concentration 800 μM for CDK6/CyclinD3 in 1× Kinase buffer was added to each of the wells containing test compound and CDK6/CyclinD3. The reaction is then allowed to proceed at 28° C. for 30 min and terminated by the addition of 25 μL stop buffer (100 mM HEPES pH 7.5, 50 mM EDTA, 0.2% Coating Reagent #3 (Perkin Elmer, 760050 #) and 0.015% Brij-35).
as §1

T1 sequence (P11802 whole entry): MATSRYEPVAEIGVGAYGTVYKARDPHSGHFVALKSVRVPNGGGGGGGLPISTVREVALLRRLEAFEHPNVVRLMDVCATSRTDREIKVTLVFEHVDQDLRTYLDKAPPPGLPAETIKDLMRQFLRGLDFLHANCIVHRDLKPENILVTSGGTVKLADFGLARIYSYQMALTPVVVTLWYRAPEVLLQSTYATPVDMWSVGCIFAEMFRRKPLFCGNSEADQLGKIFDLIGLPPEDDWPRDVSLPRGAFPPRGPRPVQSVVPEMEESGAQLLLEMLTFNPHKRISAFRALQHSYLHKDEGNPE
T1 sequence (P24385 whole entry partner): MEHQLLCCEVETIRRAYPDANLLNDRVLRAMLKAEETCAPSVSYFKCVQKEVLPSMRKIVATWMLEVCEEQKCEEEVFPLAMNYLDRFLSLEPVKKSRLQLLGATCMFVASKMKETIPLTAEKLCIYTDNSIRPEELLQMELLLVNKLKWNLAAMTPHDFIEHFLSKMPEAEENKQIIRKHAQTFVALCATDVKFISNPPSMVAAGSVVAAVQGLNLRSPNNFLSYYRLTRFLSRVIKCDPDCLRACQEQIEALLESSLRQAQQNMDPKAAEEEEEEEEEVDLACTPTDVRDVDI

As for `COC1c2cnc3c(F)cc(-c4nc(N[C@@H]5CCOC[C@H]5O)ncc4F)cc3c2CNC1(C)C` (single isomer, unassigned) [Example 108b], the results for the IC50 at CDK4/CyclinD1 and at CDK6/CyclinD3 were below 0.01 µM and 0.1 to 1 µM, respectively.
Taken in the same sequence, the figures for `CC1(O)CCc2nc3c(F)cc(-c4nc(N[C@@H]5CCOC[C@H]5O)ncc4Cl)cc3cc21` (single isomer, unassigned) [Example 38a] were below 0.01 µM and 0.01 to 0.1 µM.
Taken in the same sequence, the figures for `CNC(C)c1cnc2c(F)cc(-c3nc(N[C@@H]4CCOC[C@H]4O)ncc3Cl)cc2c1Cl` (single isomer, unassigned) [Example 63a] were 0.01 to 0.1 µM and 0.1 to 1 µM.
Turning to `Cc1c(C(C)NC2CC2)cnc2c(F)cc(-c3nc(N[C@@H]4CCOC[C@H]4O)ncc3F)cc12` (single isomer, unassigned) [Example 93a], the IC50 on CDK4/CyclinD1 fell in the range of 0.01 to 0.1 µM; on CDK6/CyclinD3, 0.1 to 1 µM.
Taken in the same sequence, the figures for `CC(C)(O)C1COc2c(F)cc(-c3nc(N[C@@H]4CCOC[C@H]4O)ncc3Cl)cc2C1` (stereo partly shown) [Example 46] were below 0.01 µM and 0.1 to 1 µM.
Taken in the same sequence, the figures for `CNC(C)c1cnc2c(F)cc(-c3nc(N[C@@H]4CCOC[C@H]4O)ncc3Cl)cc2c1` (single isomer, unassigned) [Example 32b] were 0.01 to 0.1 µM and 0.1 to 1 µM.
Taken in the same sequence, the figures for `CC(C)(O)C1COc2c(F)cc(-c3nc(N[C@@H]4CCOC[C@H]4O)ncc3Cl)cc2C1` (stereo partly shown) [Example 47] were 0.01 to 0.1 µM and 0.1 to 1 µM.
For the compound `Cc1c(C(C)O)cnc2c(F)cc(-c3nc(N[C@@H]4CCOC[C@H]4O)ncc3Cl)cc12` (single isomer, unassigned) [Example 88b], the IC50 is below 0.01 µM at CDK4/CyclinD1 and 0.01 to 0.1 µM on CDK6/CyclinD3.
Taken in the same sequence, the figures for `[2H]c1nc(N[C@@H]2CCOC[C@H]2O)nc(-c2cc(F)c3nc([2H])c4c(c3c2)CNC2(CC2)C4)c1F` [Example 71] were below 0.01 µM and 0.1 to 1 µM.
Taken in the same sequence, the figures for `CC1(C)NCCc2cnc3c(F)cc(-c4nc(N[C@@H]5CCOC[C@H]5O)ncc4Cl)cc3c21` [Example 109] were below 0.01 µM and 0.1 to 1 µM.
Taken in the same sequence, the figures for `[2H]c1nc2c(F)cc(-c3ccnc(N[C@@H]4CCOC[C@H]4O)n3)cc2c2c1CC1(CC1)NC2` [Example 66] were 0.01 to 0.1 µM and 0.1 to 1 µM.

Source of the values: patent publication US20260242395A1, “AMINOHETEROARYL KINASE INHIBITORS” (ALLORION THERAPEUTICS INC, priority 2022, published 2026).
